Experimental data from ChEMBL document CHEMBL2074127, “P-glycoprotein in the blood-brain barrier of mice influences the brain penetration and pharmacological activity of many drugs” (J Clin Invest, 1996).

How the values were obtained:
[1] = target: T1, ATP-dependent translocase ABCB1 (Mus musculus, UniProt P21447); assay: TP_TRANSPORTER: transepithelial transport (basal to apical) in mdr1a-expressing LLC-PK1 cell; assay type: functional, cell-based; details: pig
[2] = target: ATP-dependent translocase ABCB1 (Homo sapiens, UniProt P08183); assay: TP_TRANSPORTER: transepithelial transport (basal to apical) in MDR1-expressing LLC-PK1 cells; assay type: functional, cell-based; details: pig
[3] = target: T1, ATP-dependent translocase ABCB1; assay: TP_TRANSPORTER: increase in brain concentration in mdr1a(-/-) mouse; assay type: functional, organism-based; details: in vivo

T1 sequence (P21447 whole entry): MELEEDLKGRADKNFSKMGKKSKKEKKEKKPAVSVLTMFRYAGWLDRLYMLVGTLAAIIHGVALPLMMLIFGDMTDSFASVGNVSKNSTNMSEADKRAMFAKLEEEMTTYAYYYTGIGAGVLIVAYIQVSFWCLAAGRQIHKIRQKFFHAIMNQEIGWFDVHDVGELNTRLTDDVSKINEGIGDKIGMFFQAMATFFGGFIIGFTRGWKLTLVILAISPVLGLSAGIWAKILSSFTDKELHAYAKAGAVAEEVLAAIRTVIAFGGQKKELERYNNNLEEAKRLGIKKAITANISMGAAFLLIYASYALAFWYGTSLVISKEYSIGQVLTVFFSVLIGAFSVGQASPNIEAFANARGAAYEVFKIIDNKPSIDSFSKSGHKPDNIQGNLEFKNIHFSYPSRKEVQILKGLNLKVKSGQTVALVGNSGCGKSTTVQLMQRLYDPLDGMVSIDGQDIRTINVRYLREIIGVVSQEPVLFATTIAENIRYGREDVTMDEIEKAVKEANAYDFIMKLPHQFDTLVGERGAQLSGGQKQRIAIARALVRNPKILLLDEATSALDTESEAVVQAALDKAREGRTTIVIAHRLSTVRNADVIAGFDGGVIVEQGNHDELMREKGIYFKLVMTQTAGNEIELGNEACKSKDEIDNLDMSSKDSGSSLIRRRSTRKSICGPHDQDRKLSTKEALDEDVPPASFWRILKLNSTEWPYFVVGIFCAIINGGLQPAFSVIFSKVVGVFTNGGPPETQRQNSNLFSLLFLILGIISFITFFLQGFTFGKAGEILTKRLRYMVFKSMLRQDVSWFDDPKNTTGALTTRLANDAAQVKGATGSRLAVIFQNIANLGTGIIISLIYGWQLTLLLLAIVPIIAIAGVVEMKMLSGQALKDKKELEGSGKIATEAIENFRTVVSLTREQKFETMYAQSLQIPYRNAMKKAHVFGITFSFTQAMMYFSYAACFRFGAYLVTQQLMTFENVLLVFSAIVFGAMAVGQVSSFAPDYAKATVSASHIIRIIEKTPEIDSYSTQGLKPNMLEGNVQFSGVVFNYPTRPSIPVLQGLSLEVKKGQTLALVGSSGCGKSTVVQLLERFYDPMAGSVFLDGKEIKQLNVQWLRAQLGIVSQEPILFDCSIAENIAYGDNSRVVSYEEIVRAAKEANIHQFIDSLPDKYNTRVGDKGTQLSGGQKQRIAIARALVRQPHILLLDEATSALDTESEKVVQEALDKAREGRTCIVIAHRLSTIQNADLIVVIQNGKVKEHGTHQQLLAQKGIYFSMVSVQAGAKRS
Chain of ATP-dependent translocase ABCB1 (Homo sapiens, UniProt P08183) (P08183 whole entry): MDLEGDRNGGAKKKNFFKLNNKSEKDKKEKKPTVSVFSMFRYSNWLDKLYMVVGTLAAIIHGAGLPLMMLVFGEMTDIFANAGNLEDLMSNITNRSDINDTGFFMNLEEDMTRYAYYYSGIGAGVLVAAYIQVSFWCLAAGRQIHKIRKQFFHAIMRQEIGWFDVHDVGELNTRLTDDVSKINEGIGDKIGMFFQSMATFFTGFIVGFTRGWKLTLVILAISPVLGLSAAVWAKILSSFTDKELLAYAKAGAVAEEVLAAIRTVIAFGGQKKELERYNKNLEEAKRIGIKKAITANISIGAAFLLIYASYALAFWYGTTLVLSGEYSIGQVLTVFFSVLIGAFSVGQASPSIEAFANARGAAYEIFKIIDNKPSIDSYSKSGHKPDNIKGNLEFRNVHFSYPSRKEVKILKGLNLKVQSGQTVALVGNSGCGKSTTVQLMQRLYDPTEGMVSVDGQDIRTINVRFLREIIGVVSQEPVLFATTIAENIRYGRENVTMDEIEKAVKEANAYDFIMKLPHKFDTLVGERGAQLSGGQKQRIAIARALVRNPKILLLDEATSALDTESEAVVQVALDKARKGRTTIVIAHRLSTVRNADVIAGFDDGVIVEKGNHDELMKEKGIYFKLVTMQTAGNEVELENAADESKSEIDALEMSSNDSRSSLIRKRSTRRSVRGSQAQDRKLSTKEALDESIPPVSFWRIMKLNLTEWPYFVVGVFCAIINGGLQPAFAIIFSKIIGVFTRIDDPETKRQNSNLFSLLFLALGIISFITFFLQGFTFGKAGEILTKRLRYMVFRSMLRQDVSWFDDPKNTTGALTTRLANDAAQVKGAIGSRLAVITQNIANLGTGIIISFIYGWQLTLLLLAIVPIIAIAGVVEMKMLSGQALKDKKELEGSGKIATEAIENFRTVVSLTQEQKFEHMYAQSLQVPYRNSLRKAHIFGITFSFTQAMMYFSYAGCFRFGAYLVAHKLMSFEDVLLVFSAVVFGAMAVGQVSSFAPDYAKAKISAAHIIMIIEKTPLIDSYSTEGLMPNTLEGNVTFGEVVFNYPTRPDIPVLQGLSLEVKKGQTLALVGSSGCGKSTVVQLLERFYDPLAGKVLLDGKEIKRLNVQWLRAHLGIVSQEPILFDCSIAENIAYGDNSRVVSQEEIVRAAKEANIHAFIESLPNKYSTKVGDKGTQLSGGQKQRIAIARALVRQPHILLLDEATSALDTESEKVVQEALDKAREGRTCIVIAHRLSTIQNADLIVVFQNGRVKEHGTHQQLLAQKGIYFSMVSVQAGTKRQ

Row | Activity [1] | SMILES | Activity [2] | Activity [3]
1 | substrate [+] | Cc1nccn1CC1CCc2c(c3ccccc3n2C)C1=O (stereo unspecified) [ONDANSETRON] | – | substrate [+]
2 | substrate [+] | O=C1NC(=O)C(c2ccccc2)(c2ccccc2)N1 [PHENYTOIN] | – | –

Row | SMILES | Activity [1] | Activity [2] | Activity [3]
3 | CN(C)C(=O)C(CCN1CCC(O)(c2ccc(Cl)cc2)CC1)(c1ccccc1)c1ccccc1 [LOPERAMIDE] | substrate [+] | substrate [+] | substrate [+]
